Test results published in patent US20240209005A1, “BICYCLIC HETEROARYL BORONATE DERIVATIVES AS ECTONUCLEOTIDE PYROPHOSPHATASE PHOSPHODIESTERASE 1 INHIBITORS” (RIBOSCIENCE LLC, priority 2021, published 2024).
Counter-ions that a name gives are not always drawn.

What follows are molecules tested against T1, ENPP1 (Homo sapiens, UniProt P22413) (assay: Measurement of pNP-TMP hydrolysis by ENPP1). Details: purified ENPP1, pNP-TMP substrate 500 μM, KM 232 μM; Ki calculated from IC50 by Cheng-Prusoff.
T1 sequence (P22413 1-925): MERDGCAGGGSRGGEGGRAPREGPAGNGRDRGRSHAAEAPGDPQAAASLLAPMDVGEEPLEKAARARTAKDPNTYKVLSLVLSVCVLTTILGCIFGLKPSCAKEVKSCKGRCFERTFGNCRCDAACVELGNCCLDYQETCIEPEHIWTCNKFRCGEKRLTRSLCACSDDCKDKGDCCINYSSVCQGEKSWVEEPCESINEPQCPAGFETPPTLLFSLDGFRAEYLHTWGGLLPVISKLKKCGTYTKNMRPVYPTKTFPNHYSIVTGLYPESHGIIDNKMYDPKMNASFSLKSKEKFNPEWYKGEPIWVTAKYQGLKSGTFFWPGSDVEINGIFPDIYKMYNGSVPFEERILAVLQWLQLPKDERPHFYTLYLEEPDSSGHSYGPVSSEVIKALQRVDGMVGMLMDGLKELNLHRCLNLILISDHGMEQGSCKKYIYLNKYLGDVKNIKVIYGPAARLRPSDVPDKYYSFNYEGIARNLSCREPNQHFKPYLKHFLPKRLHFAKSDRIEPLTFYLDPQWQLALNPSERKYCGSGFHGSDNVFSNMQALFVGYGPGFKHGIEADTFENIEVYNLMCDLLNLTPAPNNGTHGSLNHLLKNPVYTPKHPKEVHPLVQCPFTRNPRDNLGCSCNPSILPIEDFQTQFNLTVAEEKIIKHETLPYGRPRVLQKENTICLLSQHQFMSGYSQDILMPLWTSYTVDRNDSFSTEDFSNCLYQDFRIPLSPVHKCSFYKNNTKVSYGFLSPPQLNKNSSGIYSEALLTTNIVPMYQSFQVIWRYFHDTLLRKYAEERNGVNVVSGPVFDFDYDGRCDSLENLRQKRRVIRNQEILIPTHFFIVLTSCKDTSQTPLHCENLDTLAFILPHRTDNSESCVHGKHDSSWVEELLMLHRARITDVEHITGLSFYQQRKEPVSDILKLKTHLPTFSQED
Type: biochemical
Procedure: p-Nitrophenyl thymidine 5′-monophosphate (pNP-TMP) is a synthesized substrate for ENPP1. The ENPP1 enzyme activity assay with pNP-TMP substrate was conducted as follows:
Incubation of ENPP1 with compounds was set at 25° C. for 10 min. […] For each compound dilution, wells with assay buffer (50 mM Tris-HCl, pH8.8, 250 mM NaCl, 0.1 mg/ml BSA, 1% DMSO) only but no ENPP1 were included as controls for subtraction of test compound derived absorbance at 405 nm.
Absorbance at 405 nm was recorded immediately in kinetic mode by PerkinElmer 2300 Enspire multimode plate reader.
For each inhibitor, the specific ENPP1 activity was calculated using the following equation: ENPP1 activity (pmol/min/g)=Adjusted Vmax (OD405 nm/min) X conversion factor (pmol/OD405 nm)/amount of enzyme (g)
Adjusted Vmax=V0×(Km+(S))/(S).
V0=(OD405 nm with ENPP1−OD405 nm ENPP1 blank)/minutes. OD405 nm was plotted, with blank subtracted, against time (minutes), the initial linear rate is V0. […]
The slope is the conversion factor. The percent ENPP1 activity for each sample was calculated using the following equation:
% enzyme activity=sample enzyme activity/MAX Activity×100%.
To determine the IC50 for each compound, compound concentration values and percent enzyme activity values were inserted into GraphPad Prism (GraphPad Prism version 7.0 for Windows, GraphPad Software, La Jolla California USA, www.graphpad.com), and Prism's Transform analysis was used to convert the x-axis values (compound concentration) to logarithms. A sigmoidal variable slope nonlinear regression analysis was performed using the following equation: Y=Bottom+(Top−Bottom)/(1+10^((LogIC50−X)*HillSlope)).
In the case of `OB(O)c1ccc(CNc2ncnc3cn[nH]c23)cc1` [compound 9, 4-([1H-pyrazolo[4,3-d]pyrimidin-7-ylamino]methyl)-phenylboronic acid], the Ki is reported as < 100 nM. `CC(C)NC(=O)c1c[nH]c2c(NCc3ccc(B(O)O)cc3)ncnc12` [compound 14, 4-([[7-(isopropylcarbamoyl)-5H-pyrrolo[3,2-d]pyrimidin-4-yl]amino]methyl)phenylboronic acid] was tested, and the Ki was < 1000 nM. In the case of `CNC(=O)c1csc2c(NCc3ccc(B(O)O)cc3)ncnc12` [compound 12, 4-([[7-(methylcarbamoyl)thieno[3,2-d]pyrimidin-4-yl]-amino]methyl)phenylboronic acid], the Ki is reported as < 100 nM. For `N#Cc1c[nH]c2c(NCc3ccc(B(O)O)cc3)ncnc12` [compound 15, 4-[([7-cyano-5H-pyrrolo[3,2-d]pyrimidin-4-yl]amino)methyl]phenylboronic acid], the Ki was < 100 nM. `Cn1ncc2nc(/C=C/c3cccnc3)nc(NCc3ccc(B(O)O)cc3)c21` [compound 35, 4-[([1-methyl-5-[(E)-2-(pyridin-3-yl)ethenyl]pyrazolo[4,3-d]pyrimidin-7-yl]amino)methyl]phenylboronic acid] was tested, and the Ki was < 100 nM. In the case of `Cn1cnc2ncnc(NCc3ccc(B(O)O)cc3)c21` [compound 19, 4-[[(7-methylpurin-6-yl)amino]methyl]phenylboronic acid], the Ki is reported as < 100 nM. For `CNC(=O)c1c[nH]c2c(NCc3ccc(B(O)O)cc3)ncnc12` [compound 17, 4-([[7-(methylcarbamoyl)-5H-pyrrolo[3,2-d]pyrimidin-4-yl]amino]methyl)phenylboronic acid; formic acid], the Ki was < 100 nM. With `O=CNc1csc2c(NCc3ccc(B(O)O)cc3)ncnc12` [compound 25, 4-[([7-formamidothieno[3,2-d]pyrimidin-4-yl]amino)-methyl]phenylboronic acid] the Ki was < 100 nM. For `N#Cc1csc2c(NCc3ccc(B(O)O)cc3)ncnc12` [compound 40, 4-[([7-cyanothieno[3,2-d]pyrimidin-4-yl]amino)-methyl]phenylboronic acid], the Ki was < 100 nM. `Cn1ncc2nc(C=Cc3ccccc3)nc(NCc3ccc(B(O)O)cc3)c21` (mixture of isomers) [compound 34, 4-[([1-methyl-5-[2-phenylethenyl]pyrazolo[4,3-d]pyrimidin-7-yl]amino)-methyl]phenylboronic acid] was tested, and the Ki was < 1000 nM. `Cn1ncc2nc(-c3cnccn3)nc(NCc3ccc(B(O)O)cc3)c21` [compound 33, 4-([[1-methyl-5-(pyrazin-2-yl)pyrazolo[4,3-d]pyrimidin-7-yl]amino]methyl)-phenylboronic acid] was tested, and the Ki was < 100 nM. For `Cn1ccc2ncnc(NCc3ccc(B(O)O)cc3)c21` [compound 1, 4-[([5-methylpyrrolo[3,2-d]pyrimidin-4-yl]amino)-methyl]phenylboronic acid; formic acid], the Ki was < 100 nM. `CC(C)c1nc(NCc2ccc(B(O)O)cc2)c2c(cnn2C)n1` [compound 6, 4-[([5-isopropyl-1-methylpyrazolo[4,3-d]pyrimidin-7-yl]-amino)methyl]phenylboronic acid] was tested, and the Ki was < 100 nM. In the case of `CC(=O)Nc1csc2c(NCc3ccc(B(O)O)cc3)ncnc12` [Cpd. 8, 4-[([7-acetamidothieno[3,2-d]pyrimidin-4-yl]amino)-methyl]phenylboronic acid], the Ki is reported as < 100 nM. With `Cn1ncc2nc(-c3ccncc3)nc(NCc3ccc(B(O)O)cc3)c21` [compound 32, 4-([[1-methyl-5-(pyridin-4-yl)pyrazolo[4,3-d]pyrimidin-7-yl]amino]methyl)phenylboronic acid] the Ki was < 100 nM. With `CC(C)c1nc(NCc2ccc(B(O)O)cc2)c2[nH]ncc2n1` [compound 27, 4-[([5-isopropyl-1H-pyrazolo[4,3-d]pyrimidin-7-yl]-amino)methyl]phenylboronic acid formic acid salt] the Ki was < 1000 nM. With `COC(=O)c1csc2c(NCc3ccc(B(O)O)cc3)ncnc12` [compound 38, 4-([[7-(methoxycarbonyl)thieno[3,2-d]pyrimidin-4-yl]-amino]methyl)-phenylboronic acid] the Ki was < 100 nM. With `Cc1nc(NCc2ccc(B(O)O)cc2)c2c(cnn2C)n1` [compound 5, 4-[([1,5-dimethylpyrazolo[4,3-d]pyrimidin-7-yl]amino)-methyl]phenylboronic acid] the Ki was < 1000 nM. In the case of `O=C(NCCO)c1c[nH]c2c(NCc3ccc(B(O)O)cc3)ncnc12` [compound 13, 4-[([7-[(2-hydroxyethyl)carbamoyl]-5H-pyrrolo[3,2-d]-pyrimidin-4-yl]amino)methyl]phenylboronic acid], the Ki is reported as < 10000 nM. With `NC(=O)c1csc2c(NCc3ccc(B(O)O)cc3)ncnc12` [compound 39, 4-[([7-carbamoylthieno[3,2-d]pyrimidin-4-yl]amino)-methyl]phenylboronic acid] the Ki was < 100 nM. For `O=CNc1csc2c(C#Cc3ccc(B(O)O)cc3)ncnc12` [compound 36, 4-(2-[7-formamidothieno[3,2-d]pyrimidin-4-yl]ethynyl)-phenylboronic acid], the Ki was < 1000 nM. For `OB(O)c1ccc(CNc2ncnc3ccsc23)cc1` [compound 26, 4-([thieno[3,2-d]pyrimidin-4-ylamino]methyl)phenyl-boronic acid.], the Ki was < 100 nM. `OB(O)c1ccc(CNc2ncnc3nc[nH]c23)cc1` [compound 20, 4-[(7H-purin-6-ylamino)methyl]phenylboronic acid] was tested, and the Ki was < 10000 nM. For `CCNC(=O)c1c[nH]c2c(NCc3ccc(B(O)O)cc3)ncnc12` [compound 10, 4-([[7-(ethylcarbamoyl)-5H-pyrrolo[3,2-d]pyrimidin-4-yl]-amino]methyl)phenylboronic acid; formic acid], the Ki was < 100 nM. For `Cn1ncc2nc(-c3ccccn3)nc(NCc3ccc(B(O)O)cc3)c21` [compound 30, 4-([[1-methyl-5-(pyridin-2-yl)pyrazolo[4,3-d]pyrimidin-7-yl]amino]-methyl)phenylboronic acid], the Ki was < 100 nM. In the case of `OB(O)c1ccc(CNc2nc(-c3ccccc3)nc3cn[nH]c23)cc1` [compound 28, 4-[([5-phenyl-1H-pyrazolo[4,3-d]pyrimidin-7-yl]amino)-methyl]phenylboronic acid], the Ki is reported as < 1000 nM. For `OB(O)c1ccc(CNc2ncnc3cc[nH]c23)cc1` [Cpd. 4, 4-([5H-pyrrolo[3,2-d]pyrimidin-4-ylamino]methyl)phenyl-boronic acid], the Ki was < 10000 nM. For `O=C(Nc1csc2c(NCc3ccc(B(O)O)cc3)ncnc12)c1ccccc1` [compound 24, 4-[([7-benzamidothieno[3,2-d]pyrimidin-4-yl]amino)-methyl]phenylboronic acid], the Ki was > 10000 nM. `NC(=O)c1c[nH]c2c(NCc3ccc(B(O)O)cc3)ncnc12` [compound 16, 4-[([7-carbamoyl-5H-pyrrolo[3,2-d]pyrimidin-4-yl]amino)-methyl]phenylboronic acid] was tested, and the Ki was < 1000 nM. `Cn1ncc2ncnc(NCc3ccc(B(O)O)cc3)c21` [compound 18, 4-[([1-methylpyrazolo[4,3-d]pyrimidin-7-yl]amino)methyl]-phenylboronic acid] was tested, and the Ki was < 100 nM. For `Cn1ncc2nc(-c3cccnc3)nc(NCc3ccc(B(O)O)cc3)c21` [compound 31, 4-([[1-methyl-5-(pyridin-3-yl)pyrazolo[4,3-d]pyrimidin-7-yl]amino]methyl)-phenylboronic acid], the Ki was < 1000 nM. `Cn1ncc2nc(-c3ccccc3)nc(NCc3ccc(B(O)O)cc3)c21` [compound 29, 4-[([1-methyl-5-phenylpyrazolo[4,3-d]pyrimidin-7-yl]-amino)-methyl]phenylboronic acid] was tested, and the Ki was < 1000 nM. For `CNC(=O)c1n[nH]c2c(NCc3ccc(B(O)O)cc3)ncnc12` [Cpd. 22], the Ki was > 10000 nM.
